# From patent US9937151B2, “Carbapenem antibacterials with gram-negative activity” (priority 2010, dated 2018)
# Tested on: G(−) bacterial strains
# Assay: Dilution antimicrobial susceptibility tests (MIC, NCCLS agar dilution / broth dilution)
# Type: cell-based, Gram-negative organisms
# Conditions: unit assumed
# Description: The MIC (minimum inhibitory concentration) was determined by the NCCLS (National Committee for Clinical Laboratory Standards) methods 2000. Methods for dilution antimicrobial susceptibility testing for bacteria that growth aerobically (M7-A5, vol. 20, No. 2). The agar dilution method for determining antimicrobial susceptibility was carried out using Mueller-Hinton agar. A final inoculum of 10^4 CFU/spot was applied with an inoculation device. Broth dilution tests were performed with 5×10^5 CFU/well in 96 well plates. The susceptibilities of streptococci were determined by Mueller-Hinton agar supplemented with 5% sheep blood. All assays were run with the indicated control strains, available from the ATCC (American Type Culture Collection, Rockville, Md.).
# Abbreviations used in Table 1 are defined as follows: Cf-R: Ceftazidime Resistance, Ci-R: Ciprofloxacin Resistance, Gen-R: Gentamycin Resistance, Imp-R: Imipenem Resistance, Mp-R: Meropenem Resistance, Ofx-R: Ofloxacin Resistance, B+: β-lactamase Production, AmpC: AmpC-lactamase Hyper production, CBPase: Carbapenemase Production.
# [1] = strain #1 Acinetobacter calcoaceticus
# [2] = strain #2 Acinetobacter baumannii, Cf-R, Ci-R
# [3] = strain #3 Acinetobacter baumannii, Cf-R, Ci-R, Mp-I
# [4] = strain #4 Acinetobacter baumannii, Cf-R, Imp-I, CBPase
# [5] = strain #7 Enterobacter aerogenes
# [6] = strain #8 Enterobacter cloacae, Cf-R, B+
# [7] = strain #9 Enterobacter cloacae, Cf-R
# [8] = strain #10 Escherichia coli, Ci-R
# [9] = strain #11 Escherichia coli, Ci-R, AmpC
# [10] = strain #15 Klebsiella pneumoniae
# [11] = strain #16 Moraxella catarrhalis
# [12] = strain #21 Providencia rettgeri
# [13] = strain #22 Salmonella typhimurium
# [14] = strain #25 Shigella dysenteriae
# [15] = strain #28 Stenotrophomonas maltophilia
# [16] = strain #29 Pseudomonas aeruginosa
# [17] = strain #30 Pseudomonas aeruginosa
# [18] = strain #31 Pseudomonas aeruginosa, Ofx-R
# [19] = strain #32 Pseudomonas aeruginosa, Cf-R
# [20] = strain #33 Pseudomonas aeruginosa, Ci-R
# [21] = strain #34 Pseudomonas aeruginosa, Gen-R
# [22] = strain #35 Pseudomonas aeruginosa, Ip-R
# [23] = strain #36 Pseudomonas aeruginosa, Cf-R, Ci-R, Mp-R
structure (smiles),measurement,setting,value
C[C@@H](O)C1C(=O)N2C(C(=O)O)=C(CN3CC[C@H](NC(=N)N)C3)[C@H](C)C12 (stereo partly drawn) [Compound 64],MIC,[1],0.13 µg/mL
same,MIC,[2],1 µg/mL
same,MIC,[3],1 µg/mL
same,MIC,[4],0.5 µg/mL
same,MIC,strain #5 Citrobacter diversus,0.5 µg/mL
same,MIC,strain #6 Citrobacter freundii,0.5 µg/mL
same,MIC,[5],1 µg/mL
same,MIC,[6],0.5 µg/mL
same,MIC,[7],0.5 µg/mL
same,MIC,[8],0.25 µg/mL
same,MIC,[9],0.25 µg/mL
same,MIC,strain #12 Escherichia coli,0.5 µg/mL
same,MIC,strain #13 Escherichia coli,0.5 µg/mL
same,MIC,strain #14 Klebsiella oxytoca,1 µg/mL
same,MIC,[10],1 µg/mL
same,MIC,[11],≤ 0.008 µg/mL
same,MIC,strain #17 Morganella Morganii,4 µg/mL
same,MIC,strain #18 Morganella Morganii,2 µg/mL
same,MIC,strain #19 Proteus vulgaris,1 µg/mL
same,MIC,strain #20 Proteus mirabilis,0.5 µg/mL
same,MIC,[12],2 µg/mL
same,MIC,[13],0.5 µg/mL
same,MIC,strain #23 Serratia marcescens,1 µg/mL
same,MIC,strain #24 Serratia marcescens,2 µg/mL
same,MIC,[14],0.5 µg/mL
same,MIC,strain #26 Shigella sonnei,0.5 µg/mL
same,MIC,strain #27 Shigella flexneri,0.25 µg/mL
same,MIC,[15],0.25 µg/mL
same,MIC,[16],1 µg/mL
same,MIC,[17],1 µg/mL
same,MIC,[18],0.25 µg/mL
same,MIC,[19],2 µg/mL
same,MIC,[20],2 µg/mL
same,MIC,[21],2 µg/mL
same,MIC,[22],2 µg/mL
same,MIC,[23],16 µg/mL
C[C@@H](O)C1C(=O)N2C(C(=O)[O-])=C(C[N+]3(C)CC[C@H](NC(=N)N)C3)[C@H](C)C12 (stereo partly drawn) [Compound 67],MIC,[1],2 µg/mL
same,MIC,[2],8 µg/mL
same,MIC,[3],8 µg/mL
same,MIC,[4],4 µg/mL
same,MIC,strain #5 Citrobacter diversus,0.13 µg/mL
same,MIC,strain #6 Citrobacter freundii,0.25 µg/mL
same,MIC,[5],4 µg/mL
same,MIC,[6],0.13 µg/mL
same,MIC,[7],0.25 µg/mL
same,MIC,[8],0.13 µg/mL
same,MIC,[9],0.13 µg/mL
same,MIC,strain #12 Escherichia coli,0.13 µg/mL
same,MIC,strain #13 Escherichia coli,0.25 µg/mL
same,MIC,strain #14 Klebsiella oxytoca,0.25 µg/mL
same,MIC,[10],4 µg/mL
same,MIC,[11],0.016 µg/mL
same,MIC,strain #17 Morganella Morganii,16 µg/mL
same,MIC,strain #18 Morganella Morganii,16 µg/mL
same,MIC,strain #19 Proteus vulgaris,16 µg/mL
same,MIC,strain #20 Proteus mirabilis,0.25 µg/mL
same,MIC,[12],1 µg/mL
same,MIC,[13],0.25 µg/mL
same,MIC,strain #23 Serratia marcescens,0.5 µg/mL
same,MIC,strain #24 Serratia marcescens,0.5 µg/mL
same,MIC,[14],0.25 µg/mL
same,MIC,strain #26 Shigella sonnei,0.25 µg/mL
same,MIC,strain #27 Shigella flexneri,0.13 µg/mL
same,MIC,[15],2 µg/mL
same,MIC,[16],1 µg/mL
same,MIC,[17],2 µg/mL
same,MIC,[18],2 µg/mL
same,MIC,[19],2 µg/mL
same,MIC,[20],2 µg/mL
same,MIC,[21],2 µg/mL
same,MIC,[22],4 µg/mL
same,MIC,[23],16 µg/mL
C[C@@H](O)C1C(=O)N2C(C(=O)O)=C(CN3CC[C@H](NS(N)(=O)=O)C3)[C@H](C)C12 (stereo partly drawn) [Compound 72],MIC,[1],1 µg/mL
same,MIC,[2],2 µg/mL
same,MIC,[3],4 µg/mL
same,MIC,[4],4 µg/mL
same,MIC,strain #5 Citrobacter diversus,0.5 µg/mL
same,MIC,strain #6 Citrobacter freundii,0.5 µg/mL
same,MIC,[5],1 µg/mL
same,MIC,[6],0.25 µg/mL
same,MIC,[7],1 µg/mL
same,MIC,[8],0.25 µg/mL
same,MIC,[9],0.25 µg/mL
same,MIC,strain #12 Escherichia coli,0.25 µg/mL
same,MIC,strain #13 Escherichia coli,0.5 µg/mL
same,MIC,strain #14 Klebsiella oxytoca,1 µg/mL
same,MIC,[10],0.5 µg/mL
same,MIC,[11],0.016 µg/mL
same,MIC,strain #17 Morganella Morganii,4 µg/mL
same,MIC,strain #18 Morganella Morganii,4 µg/mL
same,MIC,strain #19 Proteus vulgaris,2 µg/mL
same,MIC,strain #20 Proteus mirabilis,0.5 µg/mL
same,MIC,[12],2 µg/mL
same,MIC,[13],0.5 µg/mL
same,MIC,strain #23 Serratia marcescens,1 µg/mL
same,MIC,strain #24 Serratia marcescens,1 µg/mL
same,MIC,[14],0.5 µg/mL
same,MIC,strain #26 Shigella sonnei,0.5 µg/mL
same,MIC,strain #27 Shigella flexneri,0.25 µg/mL
same,MIC,[15],0.5 µg/mL
same,MIC,[16],8 µg/mL
same,MIC,[17],8 µg/mL
same,MIC,[18],2 µg/mL
same,MIC,[19],4 µg/mL
same,MIC,[20],8 µg/mL
same,MIC,[21],8 µg/mL
same,MIC,[22],8 µg/mL
same,MIC,[23],32 µg/mL
C[C@@H](O)C1C(=O)N2C(C(=O)O)=C(CN3CC[C@H](NC(N)=O)C3)[C@H](C)C12 (stereo partly drawn) [Compound 78],MIC,[1],2 µg/mL
same,MIC,[2],2 µg/mL
same,MIC,[3],4 µg/mL
same,MIC,[4],4 µg/mL
same,MIC,strain #5 Citrobacter diversus,0.5 µg/mL
same,MIC,strain #6 Citrobacter freundii,0.5 µg/mL
same,MIC,[5],2 µg/mL
same,MIC,[6],0.5 µg/mL
same,MIC,[7],1 µg/mL
same,MIC,[8],0.5 µg/mL
same,MIC,[9],0.5 µg/mL
same,MIC,strain #12 Escherichia coli,0.5 µg/mL
same,MIC,strain #13 Escherichia coli,1 µg/mL
same,MIC,strain #14 Klebsiella oxytoca,1 µg/mL
same,MIC,[10],1 µg/mL
same,MIC,[11],0.016 µg/mL
same,MIC,strain #17 Morganella Morganii,8 µg/mL
same,MIC,strain #18 Morganella Morganii,4 µg/mL
same,MIC,strain #19 Proteus vulgaris,4 µg/mL
same,MIC,strain #20 Proteus mirabilis,1 µg/mL
same,MIC,[12],4 µg/mL
same,MIC,[13],1 µg/mL
same,MIC,strain #23 Serratia marcescens,2 µg/mL
same,MIC,strain #24 Serratia marcescens,2 µg/mL
same,MIC,[14],1 µg/mL
same,MIC,strain #26 Shigella sonnei,1 µg/mL
same,MIC,strain #27 Shigella flexneri,0.5 µg/mL
same,MIC,[15],1 µg/mL
same,MIC,[16],8 µg/mL
same,MIC,[17],8 µg/mL
same,MIC,[18],2 µg/mL
same,MIC,[19],16 µg/mL
same,MIC,[20],16 µg/mL
same,MIC,[21],16 µg/mL
same,MIC,[22],16 µg/mL
same,MIC,[23],> 32 µg/mL
